Measurements taken from ChEMBL document CHEMBL1201862, “PubChem BioAssay data set” (2004).
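Method: 48-hour compound exposure of cells in 96-well plates, five concentrations, linear interpolation of endpoints. GI50 is the concentration that inhibits growth by half.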 Active and inactive are the calls of the source. Rule as the data show it: active = GI50 up to about 1.1 µM and inactive = higher.

Legend:
Experiment in all cases: NCI anticancer screen, dose series, 48 h
CCRF-CEM = system: CCRF-CEM
COLO 205 = system: COLO 205
HOP-62 = system: HOP-62
LXFL 529 = system: LXFL 529
M19-MEL = system: M19-MEL
MOLT-4 = system: MOLT-4
Malme-3M = system: Malme-3M
OVCAR-3 = system: OVCAR-3
SK-MEL-2 = system: SK-MEL-2
SK-OV-3 = system: SK-OV-3
SN12C = system: SN12C
UACC-62 = system: UACC-62
786-0 = system: 786-0
RXF 393 = system: RXF 393
SF-268 = system: SF-268
SF-539 = system: SF-539
NCI/ADR-RES = system: NCI/ADR-RES

Compound	GI50 (CCRF-CEM)	GI50 (COLO 205)	GI50 (HOP-62)	GI50 (LXFL 529)	GI50 (M19-MEL)	GI50 (MOLT-4)	GI50 (Malme-3M)	GI50 (OVCAR-3)	GI50 (SK-MEL-2)	GI50 (SK-OV-3)	GI50 (SN12C)	GI50 (UACC-62)	GI50 (786-0)	GI50 (RXF 393)	GI50 (SF-268)	GI50 (SF-539)	GI50 (NCI/ADR-RES)
CCN1C(=O)N2C(OC)c3ccccc3C(Br)C2(OC)C1=O (centres undefined)	> 100 µM (inactive)	> 100 µM (inactive)	> 100 µM (inactive)	> 100 µM (inactive)	> 100 µM (inactive)	> 100 µM (inactive)	> 100 µM (inactive)	> 100 µM (inactive)	> 100 µM (inactive)	> 100 µM (inactive)	> 100 µM (inactive)	> 100 µM (inactive)	–	–	–	–	–
CCC1=C(C[C@H]2NCCc3cc(OC)c(OC)cc32)C[C@H]2c3cc(OC)c(OC)cc3CCN2C1	–	–	0.0286 µM (active)	0.0316 µM (active)	0.0251 µM (active)	0.0128 µM (active)	0.136 µM (active)	0.0387 µM (active)	0.0248 µM (active)	0.0637 µM (active)	0.0326 µM (active)	0.0336 µM (active)	0.0261 µM (active)	0.0254 µM (active)	0.0356 µM (active)	0.0326 µM (active)	–
CC(=O)NC1C(OCc2ccccc2)OC(CO)C(O)C1OC(C)C(=O)N[C@@H](C)C(=O)N[C@H](CCC(=O)OCCNc1c2ccccc2nc2cccc([N+](=O)[O-])c12)C(N)=O (some centres undefined)	0.0189 µM (active)	0.00111 µM (active)	–	0.000622 µM (active)	–	0.00385 µM (active)	0.00158 µM (active)	0.00142 µM (active)	0.00211 µM (active)	0.00711 µM (active)	0.00531 µM (active)	0.000451 µM (active)	0.000328 µM (active)	0.0012 µM (active)	0.00394 µM (active)	0.00313 µM (active)	–
CC12CCCC(C#N)(C1)OC2=O (centres undefined)	> 100 µM (inactive)	–	> 100 µM (inactive)	> 100 µM (inactive)	> 100 µM (inactive)	> 100 µM (inactive)	> 100 µM (inactive)	> 100 µM (inactive)	> 100 µM (inactive)	> 100 µM (inactive)	> 100 µM (inactive)	> 100 µM (inactive)	> 100 µM (inactive)	> 100 µM (inactive)	> 100 µM (inactive)	> 100 µM (inactive)	–
Cc1ccc(NC(=O)SCCC(=O)O)cc1	> 100 µM (inactive)	> 100 µM (inactive)	> 100 µM (inactive)	> 100 µM (inactive)	–	> 100 µM (inactive)	–	> 100 µM (inactive)	> 100 µM (inactive)	–	> 100 µM (inactive)	45.7 µM (inactive)	> 100 µM (inactive)	> 100 µM (inactive)	17.2 µM (inactive)	> 100 µM (inactive)	–
O=c1[nH]c(-c2ccc([N+](=O)[O-])cc2)nc2ccc(Cl)cc12	–	> 100 µM (inactive)	–	44.2 µM (inactive)	> 100 µM (inactive)	23.6 µM (inactive)	> 100 µM (inactive)	–	> 100 µM (inactive)	77.3 µM (inactive)	> 100 µM (inactive)	> 100 µM (inactive)	> 100 µM (inactive)	78.3 µM (inactive)	> 100 µM (inactive)	> 100 µM (inactive)	–
CSc1nc2c(ncn2C2OC(CO)C(O)C(O)C2O)c(=O)n1C (centres undefined)	> 100 µM (inactive)	> 100 µM (inactive)	> 100 µM (inactive)	–	> 100 µM (inactive)	> 100 µM (inactive)	> 100 µM (inactive)	> 100 µM (inactive)	> 100 µM (inactive)	> 100 µM (inactive)	> 100 µM (inactive)	> 100 µM (inactive)	–	> 100 µM (inactive)	> 100 µM (inactive)	> 100 µM (inactive)	> 100 µM (inactive)
CC1(C)OC2C(CO)OC(N/C(=N/C#N)Oc3ccccc3)C2O1 (centres undefined)	> 100 µM (inactive)	> 100 µM (inactive)	> 100 µM (inactive)	> 100 µM (inactive)	> 100 µM (inactive)	> 100 µM (inactive)	–	> 100 µM (inactive)	–	> 100 µM (inactive)	> 100 µM (inactive)	> 100 µM (inactive)	> 10 µM (inactive)	> 100 µM (inactive)	> 100 µM (inactive)	> 100 µM (inactive)	–
Cn1c(=O)c2ccccc2c2nc3ccccc3nc21	–	> 100 µM (inactive)	–	> 100 µM (inactive)	> 100 µM (inactive)	> 100 µM (inactive)	> 100 µM (inactive)	–	> 100 µM (inactive)	37.2 µM (inactive)	> 100 µM (inactive)	> 100 µM (inactive)	97.5 µM (inactive)	> 100 µM (inactive)	> 100 µM (inactive)	92.3 µM (inactive)	–
C/C(CC(=O)Nc1cc(Cl)c(Cl)cc1Cl)=N\NC(N)=O	> 100 µM (inactive)	> 100 µM (inactive)	> 100 µM (inactive)	> 100 µM (inactive)	> 100 µM (inactive)	> 100 µM (inactive)	> 100 µM (inactive)	> 100 µM (inactive)	> 100 µM (inactive)	> 100 µM (inactive)	–	> 100 µM (inactive)	> 100 µM (inactive)	61.7 µM (inactive)	> 100 µM (inactive)	> 100 µM (inactive)	–
C/C(=N\NC(=O)C(N)=O)c1c(O)cc(C)oc1=O	> 100 µM (inactive)	–	> 100 µM (inactive)	> 100 µM (inactive)	> 100 µM (inactive)	> 100 µM (inactive)	> 100 µM (inactive)	–	> 100 µM (inactive)	> 100 µM (inactive)	> 100 µM (inactive)	> 100 µM (inactive)	> 100 µM (inactive)	–	> 100 µM (inactive)	> 100 µM (inactive)	–
CN1CCCC2[C@@H]3CCC4c5nonc5CC[C@]4(C)C3CC[C@@]21C (some centres undefined)	–	> 100 µM (inactive)	–	84.7 µM (inactive)	63.8 µM (inactive)	> 100 µM (inactive)	> 100 µM (inactive)	–	> 100 µM (inactive)	17.9 µM (inactive)	98.6 µM (inactive)	24.7 µM (inactive)	> 100 µM (inactive)	50.1 µM (inactive)	–	> 100 µM (inactive)	–
O=C(Nc1ccn(CCOC(=O)c2ccccc2)c(=O)n1)c1ccccc1	> 100 µM (inactive)	> 100 µM (inactive)	> 100 µM (inactive)	> 100 µM (inactive)	> 100 µM (inactive)	–	> 100 µM (inactive)	> 100 µM (inactive)	> 100 µM (inactive)	> 100 µM (inactive)	> 100 µM (inactive)	> 100 µM (inactive)	> 100 µM (inactive)	> 100 µM (inactive)	> 100 µM (inactive)	> 100 µM (inactive)	–
CC1CCC2(CC1)NN=c1s/c(=C\c3ccc(O)cc3)c(=O)n1N2 (centres undefined)	> 100 µM (inactive)	> 100 µM (inactive)	> 100 µM (inactive)	> 100 µM (inactive)	> 100 µM (inactive)	> 100 µM (inactive)	–	> 100 µM (inactive)	–	> 100 µM (inactive)	> 100 µM (inactive)	> 100 µM (inactive)	> 100 µM (inactive)	> 100 µM (inactive)	> 100 µM (inactive)	> 100 µM (inactive)	–
O=NN1C(c2ccccc2)C2CCCC(C2=O)C1c1ccccc1 (centres undefined)	28.3 µM (inactive)	17.5 µM (inactive)	27 µM (inactive)	–	18.9 µM (inactive)	27.1 µM (inactive)	7.53 µM (inactive)	4.82 µM (inactive)	20.2 µM (inactive)	24.5 µM (inactive)	26.2 µM (inactive)	20.4 µM (inactive)	–	18.9 µM (inactive)	49.8 µM (inactive)	44.6 µM (inactive)	32.7 µM (inactive)
COc1ccc(S(=O)(=O)N/N=C/CN2C(=O)c3ccccc3C2=O)cc1OC	> 100 µM (inactive)	> 100 µM (inactive)	> 100 µM (inactive)	> 100 µM (inactive)	> 100 µM (inactive)	> 100 µM (inactive)	> 100 µM (inactive)	> 100 µM (inactive)	> 100 µM (inactive)	> 100 µM (inactive)	–	> 100 µM (inactive)	> 100 µM (inactive)	> 100 µM (inactive)	> 100 µM (inactive)	> 100 µM (inactive)	–
CNC(=S)N(C)C(=S)Nn1c(=O)c(C)nn(C)c1=S	> 100 µM (inactive)	> 100 µM (inactive)	> 100 µM (inactive)	> 100 µM (inactive)	> 100 µM (inactive)	> 100 µM (inactive)	–	–	–	–	> 100 µM (inactive)	> 100 µM (inactive)	> 100 µM (inactive)	> 100 µM (inactive)	> 100 µM (inactive)	> 100 µM (inactive)	–
O=[N+]([O-])c1ccc(/C=C/c2ccc(/N=N/c3ccc(/C=C/c4ccc([N+](=O)[O-])cc4S(=O)(=O)O)c(S(=O)(=O)O)c3)cc2S(=O)(=O)O)c(S(=O)(=O)O)c1	> 100 µM (inactive)	> 100 µM (inactive)	> 100 µM (inactive)	–	> 100 µM (inactive)	> 100 µM (inactive)	> 100 µM (inactive)	> 87.5 µM (inactive)	> 100 µM (inactive)	> 100 µM (inactive)	> 100 µM (inactive)	> 100 µM (inactive)	–	> 100 µM (inactive)	> 100 µM (inactive)	> 100 µM (inactive)	> 100 µM (inactive)
Nc1nc2[nH]c(=O)cnc2c(=O)[nH]1 [ISOXANTHOPTERIN]	> 125 µM (inactive)	> 125 µM (inactive)	> 125 µM (inactive)	–	> 85.1 µM (inactive)	> 125 µM (inactive)	> 108 µM (inactive)	> 125 µM (inactive)	> 125 µM (inactive)	> 125 µM (inactive)	> 125 µM (inactive)	> 125 µM (inactive)	–	> 125 µM (inactive)	> 125 µM (inactive)	> 125 µM (inactive)	> 125 µM (inactive)
